Values of other authors as cited in US8961928B2, “Ligand and metal complex having the same” (National Chiao Tung University, priority 2012, dated 2015).
Where two headings read alike, the source gives them in different places.

Row | Structure (SMILES) | Relaxivity r1 (pH 7.6 ± 0.1, data from Inorg. Chem., 2001, 40, 2170-2176) [mM⁻¹ s⁻¹] | Relaxivity r1 (pH 7.5 ± 0.1, data from Inorg. Chem., 2005, 44, 382) [mM⁻¹ s⁻¹]
1 | O=C([O-])CN(CCN(CC(=O)[O-])CC(=O)[O-])CCN(CC(=O)[O-])CC(=O)[O-].[Gd+3] [[Gd(DTPA)]^2−] | 3.89 ± 0.03 | 
2 | O=C([O-])CN(CCCN(CC(=O)[O-])CC(=O)[O-])CCN(CC(=O)[O-])CC(=O)[O-].[Gd+3] [[Gd(TTDA)]^2−] |  | 3.85 ± 0.03
